# Experimental data: patent US12540922B2, “Quantitative shotgun proteome, lipidome, and metabolome analysis by direct infusion” (Wisconsin Alumni Research Foundation, priority 2021, dated 2026)
# Tested on: 293T cells (wild type or PPTC7 knockout)
# Assay: MitoTox screen: DI-SPA proteome quantification of toxin-treated cells
# Format: cell-based, human
# Details: 6-hour compound treatments, DMEM or HPLM
# Experimental: Wild type or PPTC7 knockout (KO) cells were grown in either standard or modified media, DMEM or HPLM (Cantor et al., Cell, 169, 258-272.e17 (2017)), respectively, and treated in triplicate with one of nine mitochondrial toxins or two controls for a total 132 samples. These conditions were chosen because of their known effects on metabolism and mitochondria, which were hypothesized to induce changes in proteins and thus provide a suitable testbed for DI-SPA. Again, a peptide discovery experiment (like FIG. 7) was first performed to identify peptides for subsequent targeted quantification experiments, in which 1,384 peptides were identified (peptide-level FDR=0.93%) from 451 proteins (protein-level FDR=2.8%). Next, a quantitative targeted DI-SPA assay was generated to expeditiously monitor the most intense peptide from each of the 451 proteins. This method was used to analyze all 132 samples, generating 132 proteotypes and requiring only 120 seconds of MS data collection per sample. A total of 341 out of 451 protein targets were quantified across all 132 samples in only 4.4 hours of total MS data acquisition, which corresponds to over 45,000 proteins quantified at a rate of nearly three proteins per second (FIG. 4, panel B).
# MitoTox Experiment—Cell Culture. 293T cells were purchased from ATCC (#CRL-3216) and maintained in DMEM (4.5 g/L glucose, 4 mM glutamine, no pyruvate—Thermo #11965092) supplemented with 10% fetal bovine serum (FBS) and 1× penicillin/streptomycin (100 U/mL final [c]). Human Plasma-Like Medium (HPLM) was supplemented with 10% dialyzed FBS (Thermo #26400036) and 1× penicillin/streptomycin (100 U/mL final [c]). For heavy labeling, 293T cells were labeled using the DMEM-based SILAC protein quantitation kit (Thermo #A33972). Briefly, cells were grown for at least 5 passages SILAC-compatible DMEM supplemented with 10% dialyzed FBS, ^13C ^15N2 L-lysine-2HCl and ^13C6 ^15N4 L-arginine HCl, and 1× penicillin/streptomycin. SILAC labeling was confirmed through mass spectrometry analysis and ratios of light/heavy cells were titrated based on analysis of median ratios observed in the controls. All cells were grown in a tissue culture grade incubator held at 37° C. supplemented with 5% CO2. Cells were verified as mycoplasma negative via the e-Myco Mycoplasma PCR Detection Kit (Bulldog Bio #25233).
# MitoTox screen conditions. 293T or PPTC7 knockout 293T cells were split and plated in 24 well plates at 7.5×10^4 cells per well. Cells were allowed to adhere overnight, and media was replaced with fresh DMEM or HPLM for a total of 24 hours prior to collection of cells. Compound treatments were grouped into 6-hour or 24-hour incubations, with 6-hour compound treatments occurring in the last 6 hours of the 24-hour media change, and 24-hour compound treatments occurring for the entire 24 hours of media treatment. Compounds used for 6 hours include antimycin A (5 μM final [c], Sigma #A8674), rotenone (5 μM final [c], Sigma #R8875), oligomycin (2.5 μM final [c], Sigma #04876), CCCP (10 μM final [c], Sigma #C2759), valinomycin (1 μM final [c], Sigma #V0627) and CDDO (2.5 μM final [c], Cayman Chemical #11883)). Compounds used for 24 hours include doxycycline (10 μg/ml final [c], VWR #75844-668) and Deferoxamine (DFO, 100 μM final [c], Sigma #D9533). One compound, 4-nitrobenzoate (4-NB, 1 mM final [c], Sigma #461091), requires 6+ days for efficacy (Forsman et al., Nature Chemical Biology, 6, 515-517 (2010)), and thus cells were treated with this compound for 5 days before being split to 7.5×10^4 cells per well and grouped with the 24 hour incubations. Control, untreated 293T cells were split and harvested with both the 6-hour and 24-hour compound treatment sets. All conditions were plated and collected in 3 replicate wells. […]
row,Compound,proteome perturbation (UMAP of proteotypes) in relation to 6 h controls
1,N#CC(C#N)=NNc1cccc(Cl)c1 [CCCP],produced more (and comparable) proteome rearrangement
2,CC1(C)CC[C@]2(C(=O)O)CC[C@]3(C)[C@H](C(=O)C=C4[C@@]5(C)C=C(C#N)C(=O)C(C)(C)[C@@H]5CC[C@]43C)[C@@H]2C1 [CDDO],media dependent
3,"CC(C)[C@@H]1NC(=O)[C@H](C)OC(=O)[C@@H](C(C)C)NC(=O)[C@@H](C(C)C)OC(=O)[C@H](C(C)C)NC(=O)[C@H](C)OC(=O)[C@@H](C(C)C)NC(=O)[C@@H](C(C)C)OC(=O)[C@H](C(C)C)NC(=O)[C@H](C)OC(=O)[C@@H](C(C)C)NC(=O)[C@@H](C(C)C)OC1=O [Valinomycin, valinomycin]",induced the most profound proteome perturbation relative to controls
4,CC[C@H]1/C=C/C=C/C[C@@H](C)[C@H](O)[C@@](C)(O)C(=O)[C@@H](C)[C@H](O)[C@@H](C)C(=O)[C@@H](C)[C@H](O)[C@@H](C)/C=C/C(=O)O[C@@H]2[C@H](C)[C@H](CC1)O[C@]1(CC[C@H](C)[C@H](C[C@@H](C)O)O1)[C@H]2C [oligomycin],produced more (and comparable) proteome rearrangement
5,C=C(C)[C@H]1Cc2c(ccc3c2O[C@@H]2COc4cc(OC)c(OC)cc4[C@@H]2C3=O)O1 [rotenone],most similar
6,antimycin A,most similar
